# Measurements published in patent publication EP0367747A2, “Dideoxy-L-arabinitol derivatives as antiviral compounds” (G.D. Searle & Co., priority 1988, dated 1990).
# Like-named read-outs stand apart in the source and are kept apart here. Marks after values point to notes of the source that are not given here.
# Experiments:
# visna virus = assay: Inhibition of visna virus in vitro (plaque reduction assay / 96 well plate assay) in SCP cells; type: cell-based; set-up: key to Antiviral Activity: A = active compound; I = inactive; settings: for EC50: Visna-maedi virus, inhibition of visna virus, read-out: EC₅₀; for Antiviral Activity: Table 4
# Experimental: Various compounds as prepared above were tested for inhibition of visna virus in vitro in a plaque reduction assay as follows:
# Sheep choroid plexus(SCP) cells were obtained from American Type Culture Collection (ATCC) catalogue number CRL 1700 and were routinely passaged in vitro in Dulbecco's Modified Eagles (DME) medium supplemented with 20% fetal bovine serum (FBS). SCP cells were passaged once per week at a 1:2 or 1:3 split ratio. Visna was titrated by plaque assay in six-well plates. Virus pools were stored at -70°C.
# (§1) SCP cells were cultured in 6-well plates to confluence. Wells were washed two times with serum free Minimal Essential Medium (MEM) to remove FBS. 0.2ml of virus was added per well in MEM supplemented with 4mM glutamine and gentamycin. After 1 hour adsorption, the virus was aspirated from each well. The appropriate concentration of each compound in 5 ml of Medium 199 (M-199) supplemented with 2% lamb serum, 4mM glutamine, 0.5% agarose and gentamycin was added to each well. Cultures were incubated at 37°C in a humidified 5% CO₂ incubator for 3-4 weeks. To terminate the test: cultures were fixed in 10% formalin, the agar removed, the monolayers stained with 1% crystal violet and plaques counted. Each compound concentration was run in triplicate. […] 0 is no toxicity observed while 4 is total lysing of the cell monolayer.
# The 96 well plate assay was performed similarly to the plaque assay above with modifications. SCP cells were seeded at 1 x 10⁴ cells per well in 0.1 ml DME medium. When confluent, the wells were washed with serum free MEM and 25ul of virus added in M-199 supplemented with 2% lamb serum. After 1 hour, 75uL of medium containing test compound was added to each well containing virus. After 2-3 weeks incubation the cytopathic effect of the virus was determined by staining with a vital stain. Cell viability was measured by determining stain density using a 96 well plate reader.
# Yeast alpha-glucosidase = target: T1, Yeast alpha-glucosidase (Saccharomyces cerevisiae, UniProt P53341); assay: Alpha-glucosidase inhibition assay, pH 7.4 (p-nitrophenol release); type: biochemical; settings: for inhibition at 1000 µM: at 1.0 mM
# T1 construct: purchased Sigma
# Experimental: (§2) Yeast alpha-glucosidase and almond beta-glucosidase activities were measured by a modification of the method of Evans, et al., Phytochemistry 22, 768-770 (1983). The modifications included 1) assay of activities at pH 7.4 in HEPES (N-2-hydroxyethylpiperazine-N′-2-ethanesulfonic acid) buffer, 2) measurement in 96 well microtiter plates and 3) inclusion of 10% DMSO in control and test samples. The release of p-nitrophenol from the substrate p-nitrophenylglycoside was measured spectrophotometrically in the presence and absence of test compound. Each assay included a known inhibitor of the enzyme as a standard. IC₅₀ values were determined for compounds which inhibited the enzymes more than 50% at a 1 millimolar concentration. To 100 µl 50 mM HEPES buffer, pH 7.4, in a microtiter plate, add 20 µl test compound in DMSO (DMSO alone in control), 40 µl (0.013 units) yeast alpha-glucosidase (Sigma) in HEPES buffer and pre-incubate at room temperature for 15 minutes. […] Absorption change was measured at 15 to 25 minutes (reaction was linear for at least 30 minutes). Each sample was tested in triplicate. IC₅₀ values were determined from the linear portion of the log concentration vs % inhibition curve obtained from a minimum of 3 points. Deoxynojirimycin was used as standard inhibitor.
# almond beta-glucosidase [1] = assay: Beta-glucosidase inhibition assay, pH 7.4 (p-nitrophenol release); type: biochemical; settings: for β-Glucosidase pH 7.4 % Inhibition: Table 5
# Experimental: as §2, with “µl (0.136” for “µl (0.013”, “units) beta-glucosidase” for “units) yeast alpha-glucosidase”, “(reaction is” for “(reaction was”, “points. Castanospermine” for “points. Deoxynojirimycin”
# almond beta-glucosidase [2] = assay: Beta-glucosidase inhibition assay, pH 4.8 (p-nitrophenol release); type: biochemical; settings: for β-Glucosidase pH 4.8 % Inhibition: Table 5
# Experimental: Yeast alpha-glucosidase and almond beta-glucosidase activities were measured by a modification of the method of Evans, et al., Phytochemistry 22, 768-770 (1983). The modifications included 1) assay of activities at pH 7.4 in HEPES (N-2-hydroxyethylpiperazine-N′-2-ethanesulfonic acid) buffer, 2) measurement in 96 well microtiter plates and 3) inclusion of 10% DMSO in control and test samples. The release of p-nitrophenol from the substrate p-nitrophenylglycoside was measured spectrophotometrically in the presence and absence of test compound. Each assay included a known inhibitor of the enzyme as a standard. IC₅₀ values were determined for compounds which inhibited the enzymes more than 50% at a 1 millimolar concentration. To 100 µl 50 mM sodium citrate buffer, pH 4.8, in a microtiter plate, add 15 µl test compound in DMSO (DMSO alone in control), 20 µl (.017 units) beta-glucosidase (Sigma) in citrate buffer and pre-incubate at room temperature for 15 minutes. Add 25 µl 2.50 mM p-nitrophenyl-beta-D-glucopyranside in citrate buffer, as substrate. Incubate at room temperature 20 minutes (reaction is linear for at least 30 minutes). Add 50 µl 0.4 M NaOH. Read absortion change at 405 nm in a Biotek EIA Autoreader. Each sample was tested in triplicate. IC₅₀ values were determined from the linear portion of the log concentration vs % inhibition curve obtained from a minimum of 3 points. Castanospermine was used as standard inhibitor.
# [3] = system: Sheep choroid plexus(SCP) cells; assay: Toxicity of compounds in control wells without virus, graded morphologically 0 to 4; type: cell-based; set-up: key: 0 = no toxicity; 4 = total cell lyses; settings: Table 4, 0 to 4 scale
# Experimental: as §1
# Control wells without virus were completed to determine the toxicity of compounds.
# [4] = Table 5, read-out: α-Glucosidase % Inhibition
# T1 sequence (P53341 whole entry): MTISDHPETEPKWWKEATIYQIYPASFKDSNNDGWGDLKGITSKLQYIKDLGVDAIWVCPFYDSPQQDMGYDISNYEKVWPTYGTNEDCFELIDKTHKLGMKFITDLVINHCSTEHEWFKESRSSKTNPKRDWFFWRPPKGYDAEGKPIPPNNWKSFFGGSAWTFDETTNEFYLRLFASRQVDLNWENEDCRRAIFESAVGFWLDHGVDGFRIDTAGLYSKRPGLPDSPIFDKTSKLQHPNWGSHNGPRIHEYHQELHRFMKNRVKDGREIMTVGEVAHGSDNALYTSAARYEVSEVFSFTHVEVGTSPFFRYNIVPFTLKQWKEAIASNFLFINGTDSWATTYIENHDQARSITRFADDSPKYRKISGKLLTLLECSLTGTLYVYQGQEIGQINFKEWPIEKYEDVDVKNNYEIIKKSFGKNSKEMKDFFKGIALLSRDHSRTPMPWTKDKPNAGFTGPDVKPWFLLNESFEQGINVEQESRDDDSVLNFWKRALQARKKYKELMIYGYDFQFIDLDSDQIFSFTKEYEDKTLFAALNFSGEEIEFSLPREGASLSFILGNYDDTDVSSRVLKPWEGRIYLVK
structure (smiles),measurement,setting,value
"CN1CC(O)C(O)C1CO [Example 18, 1,4-(Methylimino)-1,4-dideoxy-L-arabinitol]",EC50,visna virus,100 µM
same,IC50,"Yeast alpha-glucosidase; Table 3, pH 7.4, read-out: α-glucosidase IC₅₀",46 µM
same,IC50,"almond beta-glucosidase [1]; Table 3, at pH 7.4, read-out: β-glucosidase IC₅₀",23 µM
same,IC50,"almond beta-glucosidase [2]; Table 3, at pH 4.8, read-out: β-glucosidase IC₅₀",36 µM
"CC(=O)OC[C@H]1[C@H](OC(C)=O)[C@@H](OC(C)=O)CN1C(=O)OCc1ccccc1 [Example 20, 1,4-(Benzyloxycarbonylimino)-1,4-dideoxy-L-arabinitol, triacetate]",EC50,visna virus,1000 µM
same,Toxicity,[3]; 0.1 mM Concn.,0
same,Toxicity,[3]; 1.0 mM Concn.,0
same,inhibition at 1000 µM,Yeast alpha-glucosidase; [4],18%
same,β-Glucosidase pH 7.4 % Inhibition,almond beta-glucosidase [1]; at 1.0 mM,6%
same,β-Glucosidase pH 4.8 % Inhibition,almond beta-glucosidase [2]; at 1.0 mM,5%
"CCCC(=O)OC[C@H]1[C@H](OC(=O)CCC)[C@@H](OC(=O)CCC)CN1C(=O)OCc1ccccc1 [Example 22, 1,4-(Benzyloxycarbonylimino)-1,4-dideoxy-L-arabinitol, tributyrate]",Toxicity,[3]; 0.1 mM Concn.,1
same,Toxicity,[3]; 1.0 mM Concn.,2
same,inhibition at 10 µM,"Yeast alpha-glucosidase; Table 5, at 10 µM (**), read-out: α-Glucosidase % Inhibition",30%
same,β-Glucosidase pH 7.4 % Inhibition,almond beta-glucosidase [1]; at 10 µM (**),2%**
same,β-Glucosidase pH 4.8 % Inhibition,almond beta-glucosidase [2]; at 10 µM (**),11%**
"CC(C)C(=O)OC[C@H]1[C@H](OC(=O)C(C)C)[C@@H](OC(=O)C(C)C)CN1C(=O)OCc1ccccc1 [Example 24, 1,4-(Benzyloxycarbonylimino)-1,4-dideoxy-L-arabinitol, triisobutyrate]",IC50,"Yeast alpha-glucosidase; Table 5, values marked *, read-out: α-Glucosidase IC₅₀",33 µM
same,β-Glucosidase pH 7.4 % Inhibition,almond beta-glucosidase [1]; at 1.0 mM,1%
same,β-Glucosidase pH 4.8 % Inhibition,almond beta-glucosidase [2]; at 1.0 mM,7%
"CCCCN1CC(OC(=O)CCC)C(OC(=O)CCC)C1COC(=O)CCC [Example 26, 1,4-(Butylimino)-1,4-dideoxy-L-arabinitol, tributyrate]",EC50,visna virus,1000 µM
same,Toxicity,[3]; 0.1 mM Concn.,0
same,Toxicity,[3]; 1.0 mM Concn.,2
same,inhibition at 100 µM,Yeast alpha-glucosidase; [4],20%
same,β-Glucosidase pH 7.4 % Inhibition,almond beta-glucosidase [1]; at 100 µM (***),1%***
same,β-Glucosidase pH 4.8 % Inhibition,almond beta-glucosidase [2]; at 100 µM (***),1%***
"CC(=O)OC[C@H]1[C@H](OC(C)=O)[C@@H](OC(C)=O)CN1C(=O)Cc1ccccc1 [Example 28, 1,4-(Phenylacetylimino)-1,4-dideoxy-L-arabinitol, triacetate]",Antiviral Activity,visna virus; 0.01 mM Concn.,A
same,Antiviral Activity,visna virus; 0.1 mM Concn.,A
same,Antiviral Activity,visna virus; 1.0 mM Concn.,A
same,EC50,visna virus,1000 µM
same,Toxicity,[3]; 0.01 mM Concn.,0
same,Toxicity,[3]; 0.1 mM Concn.,0
same,Toxicity,[3]; 1.0 mM Concn.,1
same,inhibition at 1000 µM,Yeast alpha-glucosidase; [4],30%
same,β-Glucosidase pH 7.4 % Inhibition,almond beta-glucosidase [1]; at 1.0 mM,6%
same,β-Glucosidase pH 4.8 % Inhibition,almond beta-glucosidase [2]; at 1.0 mM,0%
"CCC(=O)OC[C@H]1[C@H](OC(=O)CC)[C@@H](OC(=O)CC)CN1C(=O)OCc1ccccc1 [Example 29, 1,4-(Benzyloxycarbonylimino)-1,4-dideoxy-L-arabinitol, tripropionate]",Antiviral Activity,visna virus; 0.001 mM Concn.,A
same,Antiviral Activity,visna virus; 0.01 mM Concn.,A
same,Antiviral Activity,visna virus; 0.1 mM Concn.,A
same,Toxicity,[3]; 0.001 mM Concn.,0
same,Toxicity,[3]; 0.01 mM Concn.,0
same,Toxicity,[3]; 0.1 mM Concn.,0
same,inhibition at 100 µM,Yeast alpha-glucosidase; [4],41%
same,β-Glucosidase pH 7.4 % Inhibition,almond beta-glucosidase [1]; at 100 µM (***),5%***
same,β-Glucosidase pH 4.8 % Inhibition,almond beta-glucosidase [2]; at 100 µM (***),2%***
